Experimental data reported in patent publication US10966912B2, “Medicament” (SYMRISE AG, priority 2016, dated 2021).

Legend:
Format in all cases: cell-based
[1] = test system: ex vivo human skin explants; experiment: Melanin formation after visible light irradiation on ex vivo human skin; details: visible light 480 J/cm2; for Inhibition vs Placebo: ex vivo human skin; for % of melanin: topical on skin explant phototype IV, Fontana-Masson stain, image analysis
Experimental: The below formulations were applied on ex vivo human skin explants from abdominal surgery of a donor with phototype IV (Fitzpatrick scale). 48 h after the formulations were removed with a cotton pad. Skin explants were exposed to visible light (480 J/cm2) with Hydrosun 750 equipped with KG1 filter. Formulations were reapplied afterwards. 48 h later skin sections were prepared and melanin was stained by Fontana-Masson stain. Quantification of melanin was done by image analysis.

[2] = test system: Human epidermal melanoma cells A375; experiment: Visible light induced hyperpigmentation in vitro; details: for Inhibition vs visible light induced / melanin: visible light 480 J/cm2, A375 cells; for melanin: treated 48 h before and after irradiation
Experimental: Human epidermal melanoma cells A375 were cultured in 6-well plates. The cells were exposed to visible light (480 J/cm2) with Hydrosun 750 equipped with KG1 filter. 48 h prior to and past to the irradiation the cells were treated with test compounds in non-cytotoxic concentrations. Melanocytes were lysed in a solution of NaOH. Melanin was quantified by measurement of absorbance at 405 nm and calculation based on a melanin standard curve.

[3] = test system: Human epidermal melanoma cells A375; experiment: Basal melanin formation in vitro; details: for melanin: basal

## NCCC(=O)N[C@@H](Cc1cnc[nH]1)C(=O)O [L-carnosine]
[1]; 0.05% L-carnosine (formulation C)
  Inhibition vs Placebo: 91.1%
[1]; 0.05% L-carnosine (formulation C, Table 3)
  % of melanin: 35.74 ± 2.6%
[1]; 0.2% L-carnosine (formulation B)
  Inhibition vs Placebo: 92.2%
[1]; 0.2% L-carnosine (formulation B, Table 3)
  % of melanin: 35.44 ± 2.3%
[2]; 0.001% L-carnosine
  Inhibition vs visible light induced: 110%
  melanin: 0.5601 µg
[2]; 0.00316% L-carnosine
  Inhibition vs visible light induced: 113%
  melanin: 0.5478 µg
[2]; 0.01% L-carnosine
  Inhibition vs visible light induced: 81%
  melanin: 0.6594 µg
[2]; 0.0316% L-carnosine
  Inhibition vs visible light induced: 90%
  melanin: 0.6296 µg
[2]; A375 cells
  visible light induced hyperpigmentation: inhibits significantly
[3]
  effect on basal melanin formation: no effect
[3]; 0.001% L-carnosine
  melanin: 0.6845 µg
[3]; 0.00316% L-carnosine
  melanin: 0.6186 µg
